This note sets out measurements from US10323022B2, “Pyrrolidinyl urea, pyrrolidinyl thiourea and pyrrolidinyl guanidine compounds as TrkA kinase inhibitors” (Array BioPharma Inc., priority 2011, dated 2019).

The structures appear in SMILES notation. Where only a bound is given, the exact number is not on record here.

Chain of TrkA (P04629 33-796): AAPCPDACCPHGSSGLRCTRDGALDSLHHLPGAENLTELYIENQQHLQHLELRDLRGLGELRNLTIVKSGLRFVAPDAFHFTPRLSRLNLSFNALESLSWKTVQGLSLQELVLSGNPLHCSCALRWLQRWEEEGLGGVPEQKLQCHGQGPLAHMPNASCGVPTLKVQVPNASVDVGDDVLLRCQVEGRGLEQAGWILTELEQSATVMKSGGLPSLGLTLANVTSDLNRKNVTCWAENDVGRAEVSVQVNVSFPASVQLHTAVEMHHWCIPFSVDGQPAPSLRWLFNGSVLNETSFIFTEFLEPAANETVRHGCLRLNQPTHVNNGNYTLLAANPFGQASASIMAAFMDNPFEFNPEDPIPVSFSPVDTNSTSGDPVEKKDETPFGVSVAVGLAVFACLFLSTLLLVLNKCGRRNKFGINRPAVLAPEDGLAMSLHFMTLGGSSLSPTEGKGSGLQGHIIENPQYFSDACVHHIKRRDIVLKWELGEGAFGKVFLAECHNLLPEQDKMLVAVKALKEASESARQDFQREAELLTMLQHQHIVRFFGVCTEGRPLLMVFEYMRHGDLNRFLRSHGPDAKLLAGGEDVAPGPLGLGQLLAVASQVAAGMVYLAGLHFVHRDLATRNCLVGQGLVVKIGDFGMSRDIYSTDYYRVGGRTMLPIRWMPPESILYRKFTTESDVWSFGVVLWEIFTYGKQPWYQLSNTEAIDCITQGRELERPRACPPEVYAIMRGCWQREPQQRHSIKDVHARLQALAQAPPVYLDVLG

The assay addresses TrkA (Homo sapiens (Human), UniProt P04629). Briefly: TrkA Omnia Assay. The assay is classed as biochemical. Conditions: averaged IC50; 20 nM enzyme, 500 μM ATP, 10 μM peptide substrate. The method, boiled down: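 Recombinant TrkA (20 nM) preincubated 10 min at ambient temperature with compound, then Omnia Tyr Peptide #4 (10 μM) and ATP (500 μM) added in 25 mM MOPS pH 7.5, 5 mM MgCl2, 0.005% Triton X-100. Fluorescence (ex 360/em 485 nm) followed continuously for 70 min; IC50 from initial rates by 4- or 5-parameter logistic fit.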
In turn, `COCCN1C[C@@H](NC(=O)Nc2cc(-c3ccccc3)nn2C)[C@H](c2cc(F)cc(F)c2)C1` [Example 98, 1-((3S,4R)-4-(3,5-difluorophenyl)-1-(2-methoxyethyl)pyrrolidin-3-yl)-3-(1-methyl-3-phenyl-1H-pyrazol-5-yl) urea] yielded an IC50 of less than 0.1 µM.

Consider `COCCN1C[C@@H](NC(=O)Nc2c(C)c(-c3cn(C)cn3)nn2-c2ccccc2)[C@H](c2ccc(F)c(F)c2)C1` [Example 608, 1-((3S,4R)-4-(3,4-difluorophenyl)-1-(2-methoxyethyl)pyrrolidin-3-yl)-3-(4-methyl-3-(1-methyl-1H-imidazol-4-yl)-1-phenyl-1H-pyrazol-5-yl)urea], for which the IC50 was less than 0.1 µM.

`COCCN1C[C@@H](NC(=O)Nc2c(C)c(-c3cnc(N(C)C)nc3)nn2-c2ccccc2)[C@H](c2ccc(F)c(F)c2)C1` [Example 527, 1-((3S,4R)-4-(3,4-difluorophenyl)-1-(2-methoxyethyl)pyrrolidin-3-yl)-3-(3-(2-(dimethylamino)pyrimidin-5-yl)-4-methyl-l-phenyl-1H-pyrazol-5-yl)urea]: the 50% inhibitory concentration (IC50) was less than 0.1 µM.

For `COCCN1C[C@H](NC(=O)Nc2c3c(nn2-c2ccccc2)CCC3)[C@@H](c2cncc(F)c2)C1` [Example 338, 1-((3R,4S)-4-(5-fluoropyridin-3-yl)-1-(2-methoxyethyl)pyrrolidin-3-yl)-3-(2-phenyl-2,4,5,6-tetrahydrocyclopenta[c]pyrazol-3-yl)urea], the IC50 is less than 0.1 µM.

As for `COCCN1C[C@@H](NC(=O)Nc2c3c(nn2-c2ccccc2)C(=O)N(C)C3)[C@H](c2ccc(F)c(F)c2)C1` [Example 353, 1-((3S,4R)-4-(3,4-difluorophenyl)-1-(2-methoxyethyl)pyrrolidin-3-yl)-3-(5-methyl-6-oxo-2-phenyl-2,4,5,6-tetrahydropyrrolo[3,4-c]pyrazol-3-yl)urea], the IC50 was in the range of 0.1 to 1 µM.

On to `COCCN1C[C@@H](NC(=O)Nc2c(C)c(-c3nn(C(C)C)c(=O)o3)nn2-c2ccccc2)[C@H](c2ccc(F)c(F)c2)C1` [Example 601, 1-((3S,4R)-4-(3,4-difluorophenyvl)-1-(2-methoxyethyl)pyrrolidin-3-yl)-3-(3-(4-isopropyl-5-oxo-4,5-dihydro-1,3,4-oxadiazol-2-yl)-4-methyl-1-phenyl-1H-pyrazol-5-yl)urea], for which the IC50 was less than 0.1 µM.

In turn, `O=C(Nc1c2c(nn1-c1ccccc1)CCC2)N[C@@H]1CN(CC(F)(F)F)C[C@H]1c1ccccc1Cl` (relative stereo) [Example 212, 1-((trans)-4-(2-chlorophenyl)-1-(2,2,2-trifluoroethyl)pyrrolidin-3-yl)-3-(2-phenyl-2,4,5,6-tetrahydrocyclopenta[c]pyrazol-3-yl)urea] showed an IC50 of 1 to 10 µM.

With `COCCN1C[C@@H](NC(=O)Nc2c(C)c(-c3ccccn3)nn2-c2ccccc2)[C@H](c2ccc(F)c(F)c2)C1` [Example 488, 1-((3S,4R)-4-(3,4-difluorophenyl)-1-(2-methoxyethyl)pyrrolidin-3-yl)-3-(4-methyl-1-phenyl-3-(pyridin-2-yl)-1H-pyrazol-5-yl)urea], the IC50 is less than 0.1 µM.

`Cc1c(-c2cnn(C)c2)nn(-c2ccccc2)c1NC(=O)N[C@H]1CN(CC(F)(F)F)C[C@@H]1c1ccccc1` [Example 269, 1-(1′,4-dimethyl-1-phenyl-1H,1′H-3,4′-bipyrazol-5-yl)-3-((3R,4S)-4-phenyl-1-(2,2,2-trifluoroethyl)pyrrolidin-3-yl)urea] registered an IC50 of less than 0.1 µM.

For `COCCN1C[C@@H](NC(=O)Nc2c(C)c(Oc3cnccn3)nn2-c2ccccc2)[C@H](c2ccc(F)cc2)C1` [Example 603, 1-((3S,4R)-4-(4-fluorophenyl)-1-(2-methoxyethyl)pyrrolidin-3-yl)-3-(4-methyl-1-phenyl-3-(pyrazin-2-yloxy)-1H-pyrazol-5-yl)urea], the IC50 is less than 0.1 µM.
